Test results from patent publication US8883415B2, “Aza-benzazolium containing cyanine dyes” (Life Technologies Corporation, priority 1999, dated 2014).

System: double-stranded DNA
Assay: Detecting double-stranded DNA in solution (fluorescence microplate reader)
Format: binding
Procedure: Samples containing 0.1 ng/mL to 1 microgram/mL double-stranded DNA are prepared in 10 mM Tris-HCl, 1 mM EDTA, pH 7.5. The selected dye of the invention is dissolved in DMSO at a concentration of 1-10 mM and then diluted into the same buffer at a concentration sufficient to achieve final optical densities of 0.1 and 0.01 at 500 nm, 530 nm, 540 nm or 560 nm. Equal volumes (100 microliters each) of DNA sample solution and dye solution at each concentration are combined and mixed gently at room temperature in a microplate well.
Samples are allowed to equilibrate for 5-60 minutes, protected from light, and the fluorescence of the sample is measured using a fluorescence microplate reader. DNA concentration is determined by comparison of the sample fluorescence with a standard curve obtained with that dye for each dye concentration. The sensitivity limit of several dyes in this assay is shown (Table 5).

[1] = Excitation 540 nm/Emission 570 nm
[2] = Excitation 560 nm/Emission 585 nm
[3] = Excitation 500 nm/Emission 560 nm

Compound | Sensitivity Limit, High dye concentration (0.1 OD) [2] | Sensitivity Limit, Low dye concentration (0.01 OD) [2] | Sensitivity Limit, High dye concentration (0.1 OD) [3] | Sensitivity Limit, Low dye concentration (0.01 OD) [3] | other results
CN1C=C/C(=C\c2sc3ncccc3[n+]2C)c2ccccc21.[I-] [Compound 33] | – | – | – | – | Sensitivity Limit, High dye concentration (0.1 OD) [1]: 100 ng/mL; Sensitivity Limit, Low dye concentration (0.01 OD) [1]: >10 ng/mL
CN1C=C/C(=C\c2nc3c(cc(Cl)c[n+]3C)s2)c2ccccc21.[I-] [Compound 34] | – | – | – | – | Sensitivity Limit, High dye concentration (0.1 OD) [1]: <10 ng/mL; Sensitivity Limit, Low dye concentration (0.01 OD) [1]: 0.2 ng/mL
CN1C=C/C(=C\c2nc3c(cc(Cl)c[n+]3C)s2)c2ccccc21.[I-] [Compound 35] | – | – | – | – | Sensitivity Limit, High dye concentration (0.1 OD) [1]: 10 ng/mL; Sensitivity Limit, Low dye concentration (0.01 OD) [1]: 0.5 ng/mL
CN1C=C/C(=C\c2nc3c(cc(Cl)c[n+]3C)s2)c2ccccc21.[I-] [Compound 37] | 10 ng/mL | 2.0 ng/mL | – | – | –
CN1C=C/C(=C\c2nc3c(cc(Cl)c[n+]3C)s2)c2ccccc21.[I-] [Compound 38] | 200 ng/mL | 5.0 ng/mL | – | – | –
CN1C=C/C(=C\c2nc3c(cc(Cl)c[n+]3C)s2)c2ccccc21.[I-] [Compound 39] | 10 ng/mL | 5.0 ng/mL | – | – | –
CN1C=C/C(=C\c2nc3c(cc(Cl)c[n+]3C)s2)c2ccccc21.[I-] [Compound 40] | 10 ng/mL | 1.0 ng/mL | – | – | –
CN1C(Cl)=C/C(=C\c2nc3c(cc(Cl)c[n+]3C)s2)c2ccccc21.[Cl-] [Compound 41] | 10 ng/mL | >10 ng/mL | – | – | –
CN1C=C/C(=C\c2nc3c(ccc[n+]3C)o2)c2ccccc21.Cc1ccc(S(=O)(=O)[O-])cc1 [Compound 48] | – | – | 10 ng/mL | >10 ng/mL | –
CN1C=CC(Cc2sc3c(F)nc(F)c(F)c3[n+]2C)c2ccccc21.[I-] (stereo not drawn) [Compound 49] | – | – | 20 ng/mL | >10 ng/mL | –
CC1/C(=C/c2nc3c(ccc[n+]3C)o2)C=Cc2ccccc21.Cc1ccc(S(=O)(=O)[O-])cc1 (stereo not drawn) [Compound 53] | – | – | 10 ng/mL | >10 ng/mL | –
COC1=C/C(=C\c2nc3c(ccc[n+]3C)o2)c2ccccc2N1C [Compound 54] | – | – | 10 ng/mL | 1.0 ng/mL | –
